# From patent publication US20250325684A1, “POTENT ANTI-CANCER CYCLOTIDES” (University of Southern California, priority 2022, published 2025)
# Entries after “also recorded” stand apart in the source; their conditions may differ. Numbered stars: 1 amine (or outer) side, 2 acyl side, 3 side chain; on linkers, the order of the positions; unused ones are H or OH. Bridge positions count the residues as written; N and C are the ends. Square brackets hold non-standard residues; d marks the D form. Peptide text beside a SMILES is read from it. I, II: the chains in the order shown. X1 = O=C(CCc1cn(CCOCCOCCOCCC(=O)[*:2])nn1)[*:1]; isoGln = NC(=O)[C@H](CCC(=O)[*:2])N[*:1]
# Key:
# [1] = test system: HCT116^−/−; assay: MTT cell viability, HCT116 p53-null cells; format: cell-based, human; conditions: HCT116^−/− colon carcinoma, p53 Null; MTT; read-out: EC50
# Experimental: Cell viability assay in several human cancer cell lines (See Tables 1 to 10). Cell lines were cultured in RPMI 1640 (or recommended medium when indicated) medium supplemented with 10% fetal calf serum, penicillin (50 IU/mL) and streptomycin ([…]) at 37° C. in 5% CO2. Cell viability studies was carried using the MTT (3-(4,5-dimethylthiazol-2-yl)-2,5-diphenyltetrazolium bromide) assay as previously described (31). Briefly, ≈2×10^3 CRC cells were be seeded in 96-well microtiter plates in 100 μL RPMI 1640 in the presence of 10% calf serum. […] After 1 h, 210 μL/well of full complemented media was added, the cells were grown for 48 h and then treated with 20 μL of a solution of MTT (5 mg/mL) for 2 h. The medium was discarded and DMSO ([…]) was added to each well and incubated with gentle shaking for 20 min at room temperature. The absorbance at 595 nm of the solution is analyzed using a Tecan Genios Multifunctional Microplate Reader (Tecan System Inc) and the background at 670 nm subtracted. RNA-Seq analysis was performed using state-of-the-art bioinformatics tools. Briefly, raw RNA-Seq reads were mapped to human genome (hg38) using STAR aligner (v2.7.3a). Gencode Release 36 reference was used for annotation. Transcript and gene expression levels were quantified using the IsoEM (37) with default parameters. […]
# Cell viability was evaluated using the MTT assay as described above.
# [2] = target: T1, E3 ligase activity of Hdm2 (Homo sapiens, UniProt Q00987); assay: E3 ligase activity of Hdm2 on p53, commercial kit; format: biochemical; conditions: in vitro, Hdm2 around 1 μM (FIG. 4B)
# T1 construct: purchased
# Experimental: FIGS. 4A-4B: Structure and E3 ligase inhibitory activity of cyclotide MCo-52-2. (FIG. 4A) Structures of the heterodimer formed by the RINGs domain of Hdm2 and HdmX and the complex of cyclotide MCo-52-2 with the RING domain of HdmX, the interacting residues in loops 1 and 5 are shown in light grey (on the left). (FIG. 4B) Inhibitory E3 ligase activity of cyclotide of Hdm2 on p53. The concentration of Hdm2 in the assay was around 1 μM as provided in the commercial kit.
# Cyclotide MCo-52-2-cTAT efficiently antagonizes the RING-mediated dimerization of Hdm2/HdmX inhibiting its E3 ligase activity. Applicant developed a cell-based screening of genetically-encoded libraries of cyclotides for Hdm2/HdmX antagonists that has allowed the selection of a bioactive cyclotide, MCo-52-2-cTAT. […] This cyclotide can be efficiently produced by chemical synthesis using solid-phase peptide synthesis (SPPS) or heterologous expression systems (28). Heterologous expression of cyclotides allows introduction of NMR-active isotopes, such as ^13C and ^15N to study the structure of this cyclotide and how interacts with the RING-domains of Hdm2 and HdmX. Using this approach, Applicant solved the structure of cyclotide MCo-52-2 complexed to the RING domain of HdmX in solution (FIG. 4A).
# [3] = test system: p53 pathway in LNCaP cells; assay: Activation of the p53 pathway in LNCaP cells; format: cell-based, human
# Experimental: Activation of the p53 pathway requires 6 to 8 h after exposing the cells to cyclotide MCo-52-2 for 1 h (FIG. 5B).
# Stabilization of p53 could be observed just 8 h after treating the cells with the bioactive cyclotide (FIG. 5B), likely indicating the cyclotide crosses the cellular membrane into the cytosol through an endocytic mechanism as previously described for this type of microproteins (30, 31). […] These transcription factors (ATF3, FOXO3a and RUNX3) and kinases (DYRK2 and HIPK2) have been described to be regulated by the E3 ligase activity of Hdm2/HdmX (6). […] In both cases the peptide was able to inhibit tumor growth by 60% (HCT116-nude mice) and 80% (CT26-Balb/c mice) (FIG. 7).
# [4] = test system: HCT116 xenografts; assay: HCT116 xenograft in nude mice; format: in vivo, mouse; conditions: two murine models of colorectal carcinoma
# Experimental: Mice xenografts studies. HCT116 p53^−/− and CT26 xenografts were established by injecting 100 uL suspension of basal RPMI containing 0.5×10^6 cells into the rear right flanks of female nude mice (nu/nu) mice (HCT116) or Balb/C (CT26). When tumors reached an average volume of ≈100 mm^3, cohorts (n≥4) were treated with vehicle (5% dextrose in water, D5W), MCo-52-2-cTAT (40 mg/kg), or Nutlin-3 (20 mg/kg, […]) once daily for up to 38 days by intravenous injection (MCo-52-2-cTAT and vehicle) or by intraperitoneal administration (Nutlin-3) for HCT116 xenografts; or with vehicle (D5W), MCo-52-2-cTAT (25 mg/kg) three times per week by intraperitoneal injection. Compounds were prepared in a D5W at a final volume of 50 μL (peptide) or 100 μL (Nutlin-3). […] Individual weights were recorded thrice weekly, comparing the control and treatment groups as an additional indicator of tolerance of drug treatment as well as providing the average weight for calculation of drug dosing. Tumor size was measured with calipers. Tumor volume was calculated by measuring tumor size in two dimensions and applying those measurements to the calculation V=d^2×D/2, where d and D equal to the smaller and larger of the two measurements, respectively. […]
# [5] = Immunogenicity, IgG titer ELISA in Balb/c mice; format: in vivo, mouse; conditions: intraperitoneal 25 mg/kg, 3 times per week for 28 days, listed as MCo-52-2-cTAT
# Experimental: The ELISA assay was performed as follows. Micro microplate wells were coated with pmol of streptavidin and then blocked with a 5 solution of nonfat dry milk in PBS. Around of 150 pmol of the corresponding biotinylated antigen (MCo-52-2 or cTAT) were incubated with the streptavidin-coated wells. Murine IgG (m-IgG, 150 pmol) and PBS (no antigen) were used as positive and negative controls in the assay, respectively. Wells coated with antigens MCo-52-2 and cTAT were incubated with serial dilutions of sera from mice untreated and treated with cyclotide MCo-52-2-cTAT. The amount of murine IgG was detected using a goat HRP-conjugated anti-mouse IgG.
# T1 sequence (Q00987 whole entry): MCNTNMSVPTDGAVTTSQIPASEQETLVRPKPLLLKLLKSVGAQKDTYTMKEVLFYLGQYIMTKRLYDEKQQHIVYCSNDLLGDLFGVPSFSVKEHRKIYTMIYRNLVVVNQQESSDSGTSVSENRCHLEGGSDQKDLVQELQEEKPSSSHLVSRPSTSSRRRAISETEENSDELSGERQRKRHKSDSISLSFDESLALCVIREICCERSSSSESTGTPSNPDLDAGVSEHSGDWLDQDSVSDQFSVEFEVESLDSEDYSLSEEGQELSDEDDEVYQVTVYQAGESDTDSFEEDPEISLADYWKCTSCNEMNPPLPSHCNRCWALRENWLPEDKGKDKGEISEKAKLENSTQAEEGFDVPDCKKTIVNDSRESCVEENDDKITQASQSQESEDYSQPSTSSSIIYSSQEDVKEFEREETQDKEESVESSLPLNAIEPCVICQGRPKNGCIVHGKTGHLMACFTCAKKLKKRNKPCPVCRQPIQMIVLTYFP
Molecule,EC50 [1] [µM],Inhibition of the E3 ligase activity of Hdm2 [2],"Time until activation of the p53 pathway / stabilization of p53 ([3]; after exposing the cells to cyclotide for 1 h, listed as MCo-52-2-cTAT) [h]","Activation of the p53 pathway ([3]; wild type-p53, listed as MCo-52-2-cTAT)",p53 expression on tumor tissue (western blotting) [4],"Immunogenicity, IgG titer against the cyclotide [5]"
N=C(N)NCCC[C@@H]1NC(=O)[C@@H](CCCNC(=N)N)NC(=O)[C@H](CCCCN)NC(=O)[C@@H](N)CCCCNC(=O)CC[C@@H](C(=O)O)NC(=O)[C@@H](CCCNC(=N)N)NC(=O)[C@H](CCCNC(=N)N)NC(=O)[C@@H](CCCCN)NC(=O)[C@H](CCCCN)NC(=O)[C@@H](CCCNC(=N)N)NC(=O)CNC(=O)[C@@H](CCCNC(=N)N)NC1=O [cTAT] (H-KK[dR]R[dR]G[dR]K[dK]R[dR]E-OH; lactam 1-12; N-terminus and C-terminus assumed),> 100,–,–,–,–,–
"I: cyclo(ACICRHDSYCGSGSDGGVCPNLYLLCRRDKDCPG) / II: KK[dR]R[dR]G[dR]K[dK]R[dR][isoGln] (disulfide I:2-I:19, I:4-I:26, I:10-I:32; linker I:30-II:N via X1; lactam II:1-II:C) [Cyclotide 52-2-cTAT]",–,specifically inhibit the E3 ligase activity of Hdm2 in vitro in a dose-dependent fashion,8,activate the p53 pathway in wild type-p53 cancer cells (LNCaP) in a dose-dependent fashion; also recorded: activates the p53 pathway in LNCaP cells in a dose-dependent fashion,stabilizes p53 expression on tumor tissue,did not show any significant IgG titer; also recorded: little immunogenicity
